The source of these data is PubChem BioAssay (NCI).

“And” between values parts separate entries of the source, which are not always exact repeats. Equal values may be shown once.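 Compound exposure: 48 hours, 5 concentrations, 96-well plates. GI50 marks 50% less growth. At the TGI there is no net growth.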 Some results are limits rather than exact numbers.

Among the test systems are ACHN renal; CCRF-CEM leukemia; HL-60(TB) leukemia; MCF7 breast; NCI-H522 lung; OVCAR-5 ovarian; RPMI-8226 leukemia; SK-MEL-5 melanoma; SNB-75 CNS; A498 renal.
Holding throughout (assay): NCI tumour cell line growth inhibition, 48 h

Turning to `COc1cnc2c(c1)C(=O)c1c-2n(CCCNCCN2CCOCC2)c(=O)c2cc([N+](=O)[O-])ccc12`, the GI50 in the assay with ACHN renal was 0.0365 µM; in the assay with CCRF-CEM leukemia, 0.0453 µM; in the assay with HL-60(TB) leukemia, 0.104 µM; in the assay with MCF7 breast, 0.0323 µM; in the assay on NCI-H522 lung, 0.0787 µM; in the assay with OVCAR-5 ovarian, 0.448 µM. Moreover, the GI50 was 0.171 µM in the assay on RPMI-8226 leukemia, 0.263 µM in the assay on SK-MEL-5 melanoma and 0.265 µM in the assay with SNB-75 CNS. Further, the TGI with ACHN renal was found to be 0.201 µM; in the assay with CCRF-CEM leukemia, 3.2 µM; in the assay on HL-60(TB) leukemia, 0.818 µM; with MCF7 breast, 10.2 µM; with NCI-H522 lung, 1.38 µM; with OVCAR-5 ovarian, 3.87 µM. In addition, the TGI in the assay on RPMI-8226 leukemia was 1.55 µM; in the assay with SK-MEL-5 melanoma, 1.26 µM; with SNB-75 CNS it was 10.7 µM.

For `COc1cc2cnc(-c3ccccc3)cc2cc1OC`, the TGI with A498 renal is 21.2 µM; in the assay with ACHN renal, 73.4 µM; in the assay on HL-60(TB) leukemia, 59.7 µM; in the assay with MCF7 breast it was more than 100 µM; in the assay with NCI-H522 lung, 53 µM; in the assay with OVCAR-5 ovarian it was more than 100 µM. The TGI with RPMI-8226 leukemia was 36 µM; in the assay on SK-MEL-5 melanoma, 27.7 µM; in the assay on SNB-75 CNS, more than 100 µM.

As to `O=C(Cc1ccc(Nc2ccnc(C(F)(F)F)c2)cc1)Nc1cc(Cl)ccc1O`, the GI50 in the assay with A498 renal was 3.03 µM; with ACHN renal it was 4.44 µM; in the assay on CCRF-CEM leukemia, 1.68 µM; in the assay with HL-60(TB) leukemia, 1.7 µM; in the assay with MCF7 breast, 4.99 µM; in the assay on OVCAR-5 ovarian it was 17.8 µM. The GI50 in the assay with RPMI-8226 leukemia is 1.25 µM; in the assay with SK-MEL-5 melanoma, 3.86 µM; in the assay with SNB-75 CNS, 11.9 µM. Besides, the TGI stood at 10.6 µM with A498 renal; 44.2 µM with ACHN renal; 7.63 µM in the assay on CCRF-CEM leukemia; 5.35 µM with HL-60(TB) leukemia; 42.8 µM with MCF7 breast; 52.1 µM in the assay on OVCAR-5 ovarian. Also, the TGI in the assay with RPMI-8226 leukemia was found to be 4.1 µM; with SK-MEL-5 melanoma it was 14.7 µM; in the assay with SNB-75 CNS, 37.5 µM.

With `COc1ccc(-c2nnc(SCC(=O)Nc3ccc(C(=O)/C=C/c4cc(OC)c(OC)c(OC)c4)cc3)n2-c2ccccc2)cc1OC`, the GI50 in the assay on A498 renal was 5 µM; in the assay on ACHN renal, 5.69 µM; with CCRF-CEM leukemia, 2.84 µM; in the assay with HL-60(TB) leukemia, 6.44 µM; in the assay on MCF7 breast it was 0.382 µM; with OVCAR-5 ovarian, more than 10 µM. Besides, the GI50 was 0.387 µM with RPMI-8226 leukemia, 7.79 µM in the assay with SK-MEL-5 melanoma and more than 10 µM in the assay on SNB-75 CNS. Further, the TGI in the assay on A498 renal, in the assay on ACHN renal, in the assay on CCRF-CEM leukemia, with HL-60(TB) leukemia, in the assay with MCF7 breast and in the assay with OVCAR-5 ovarian was more than 10 µM throughout. For the same compound, the TGI is 5.73 µM with RPMI-8226 leukemia, more than 10 µM with SK-MEL-5 melanoma and more than 10 µM with SNB-75 CNS.

With `Cc1cc(NCc2cc(Nc3ccnc4cc(Cl)ccc34)ccc2F)nc(N2CCSCC2)n1`, the GI50 was 2.18 µM in the assay on A498 renal; 1.7 µM with ACHN renal; 0.473 µM in the assay with CCRF-CEM leukemia; 1.64 µM in the assay with MCF7 breast; 1.96 µM with NCI-H522 lung; 2.21 µM in the assay with OVCAR-5 ovarian. The GI50 with RPMI-8226 leukemia is 1.42 µM; with SK-MEL-5 melanoma, 1.53 µM; in the assay on SNB-75 CNS it was 1.32 µM. The TGI in the assay on A498 renal is 10.4 µM; in the assay on ACHN renal, 3.53 µM; in the assay with CCRF-CEM leukemia it was more than 100 µM; in the assay on MCF7 breast, 4.18 µM; in the assay on NCI-H522 lung, 4.49 µM; with OVCAR-5 ovarian it was 8.25 µM. In addition, the TGI amounted to 3.96 µM with RPMI-8226 leukemia, 2.94 µM in the assay with SK-MEL-5 melanoma and 2.9 µM in the assay on SNB-75 CNS.

Take `CC(=O)Nc1ccc(-c2csc(Nc3cccc(-c4csc(-c5ccccc5)n4)c3)n2)cc1`: the GI50 in the assay with A498 renal was 46 µM; in the assay with ACHN renal, 8.3 µM; with CCRF-CEM leukemia, more than 50 µM; in the assay with HL-60(TB) leukemia, 29.7 µM; with MCF7 breast, 20 µM; with NCI-H522 lung, 24.2 µM. The results for the GI50 in the assay with OVCAR-5 ovarian, with RPMI-8226 leukemia and with SK-MEL-5 melanoma were more than 50 µM, 19.4 µM and 18.7 µM, respectively. Moreover, the TGI in the assay with A498 renal was more than 50 µM; in the assay with ACHN renal, 27.5 µM; in the assay on CCRF-CEM leukemia, more than 50 µM; with HL-60(TB) leukemia it was more than 50 µM; in the assay on MCF7 breast it was more than 50 µM; in the assay on NCI-H522 lung, more than 50 µM. The TGI in the assay with OVCAR-5 ovarian, in the assay with RPMI-8226 leukemia and in the assay on SK-MEL-5 melanoma was more than 50 µM throughout.

As to `c1ccc2cc(C[n+]3ccn(Cc4ccc5ccccc5n4)c3)ccc2c1`, the GI50 in the assay with A498 renal is 0.492 µM and 2.49 µM; in the assay on ACHN renal, 5.54 µM; with CCRF-CEM leukemia it was 0.728 µM and 3.64 µM; in the assay on HL-60(TB) leukemia, 0.214 µM and 0.827 µM; in the assay with MCF7 breast, 0.353 µM and 2.98 µM; in the assay with NCI-H522 lung it was 0.275 µM and 2.3 µM. Also, the GI50 is 0.588 µM and 3.58 µM in the assay on OVCAR-5 ovarian; 0.196 µM and 0.876 µM with RPMI-8226 leukemia; 0.216 µM and 1.21 µM in the assay on SK-MEL-5 melanoma. Besides, the TGI in the assay with A498 renal was 3.9 µM and 24.1 µM; in the assay on ACHN renal it was 18.5 µM; in the assay on CCRF-CEM leukemia it was 11 µM and 16.4 µM; with HL-60(TB) leukemia, 0.653 µM and 3.05 µM; with MCF7 breast, 2.36 µM and 13.4 µM; in the assay with OVCAR-5 ovarian, 9.52 µM and 16.7 µM. Besides, the TGI in the assay on SK-MEL-5 melanoma is 0.532 µM and 2.5 µM.

Regarding `COC1C(CO)OC(n2c3c(Cl)cccc3c3c4c(c5c6cccc(Cl)c6[nH]c5c32)C(=O)NC4=O)C(O)C1O` (stereo not drawn), the TGI was 0.688 µM with A498 renal; 1.47 µM in the assay on ACHN renal; more than 100 µM with CCRF-CEM leukemia; 4.86 µM with MCF7 breast; 10.5 µM in the assay with NCI-H522 lung; more than 41.9 µM with OVCAR-5 ovarian. For the same compound, the TGI was more than 18.7 µM with RPMI-8226 leukemia, 0.321 µM with SK-MEL-5 melanoma and 5.87 µM with SNB-75 CNS.

On to `O=C(Cc1csc2nc(-c3ccc(Br)cc3)cn12)N/N=C/c1ccc(Cl)cc1Cl`, for which the GI50 is 29.3 µM with A498 renal; 22.6 µM in the assay on ACHN renal; 40 µM with CCRF-CEM leukemia; more than 100 µM with MCF7 breast; 25.8 µM with NCI-H522 lung; 28.6 µM in the assay with OVCAR-5 ovarian. The GI50 with RPMI-8226 leukemia was 80.2 µM; with SK-MEL-5 melanoma it was 44.2 µM; in the assay on SNB-75 CNS, 37.5 µM. The TGI in the assay with A498 renal is 62.7 µM; with ACHN renal it was 53.6 µM; with CCRF-CEM leukemia, more than 100 µM; in the assay on MCF7 breast, more than 100 µM; in the assay on NCI-H522 lung, more than 100 µM; in the assay with OVCAR-5 ovarian it was 67.3 µM. In addition, the TGI in the assay on RPMI-8226 leukemia, in the assay with SK-MEL-5 melanoma and with SNB-75 CNS was more than 100 µM throughout.

For `O=C(c1nn(-c2ccc(Cl)cc2)cc1O)n1nc(C(F)(F)F)cc1-c1ccccc1`, the GI50 was 5.93 µM with A498 renal; 2.08 µM with ACHN renal; 0.738 µM with CCRF-CEM leukemia; 2.42 µM with HL-60(TB) leukemia; 3.38 µM in the assay on MCF7 breast; 1.91 µM in the assay on RPMI-8226 leukemia. The results for the GI50 in the assay with SK-MEL-5 melanoma and in the assay on SNB-75 CNS were 2.07 µM and 0.816 µM, respectively. In addition, the TGI is more than 73.9 µM with A498 renal; more than 100 µM in the assay with ACHN renal; more than 33.8 µM in the assay with CCRF-CEM leukemia; more than 100 µM in the assay with HL-60(TB) leukemia; more than 100 µM in the assay on MCF7 breast; more than 85 µM in the assay with OVCAR-5 ovarian. Further, the TGI is more than 85.3 µM in the assay on RPMI-8226 leukemia, 16.7 µM in the assay on SK-MEL-5 melanoma and more than 100 µM in the assay with SNB-75 CNS.

Regarding `O=C(Oc1ccccc1Cl)c1ccccc1Nc1cccc(C(F)(F)F)c1`, the GI50 in the assay on A498 renal was 24.8 µM; in the assay with ACHN renal it was 40.3 µM; in the assay on CCRF-CEM leukemia, 3.42 µM; in the assay on MCF7 breast it was 33.9 µM; in the assay with NCI-H522 lung it was 19.5 µM; with OVCAR-5 ovarian, 30.6 µM. For the same compound, the results for the GI50 with RPMI-8226 leukemia, in the assay with SK-MEL-5 melanoma and in the assay on SNB-75 CNS were 18.4 µM, 14.8 µM and 43.1 µM, respectively. The TGI in the assay on A498 renal is 54.8 µM; in the assay on ACHN renal it was more than 100 µM; in the assay on CCRF-CEM leukemia, 12.3 µM; in the assay with MCF7 breast it was more than 100 µM; with NCI-H522 lung, 52.4 µM; in the assay on OVCAR-5 ovarian it was 94.7 µM. Besides, the TGI in the assay with RPMI-8226 leukemia was 54.2 µM; in the assay with SK-MEL-5 melanoma it was 30.8 µM; with SNB-75 CNS, more than 100 µM.

Turning to `CCOC(OCC)C(CC)[Se]c1ccccc1` (stereo not drawn), the TGI was more than 100 µM with A498 renal; more than 100 µM in the assay on ACHN renal; more than 100 µM in the assay with CCRF-CEM leukemia; 19 µM in the assay on HL-60(TB) leukemia; 46.2 µM in the assay with NCI-H522 lung; more than 100 µM in the assay on OVCAR-5 ovarian. Moreover, the figures for the TGI in the assay on RPMI-8226 leukemia, in the assay with SK-MEL-5 melanoma and in the assay with SNB-75 CNS were 57.5 µM, more than 100 µM and more than 100 µM, respectively.

Take `CCOc1cc2c(=O)oc3c(OC)ccc4ccc(c1OC)c2c43`: the TGI is more than 100 µM in the assay with A498 renal; more than 100 µM with ACHN renal; more than 100 µM in the assay on CCRF-CEM leukemia; more than 100 µM in the assay with HL-60(TB) leukemia; more than 100 µM in the assay with MCF7 breast; 90.7 µM in the assay with NCI-H522 lung. Also, the TGI with OVCAR-5 ovarian, in the assay on SK-MEL-5 melanoma and with SNB-75 CNS was more than 100 µM throughout.

Turning to `COc1ccc(-n2cc(-c3cc(OC)c(OC)c(OC)c3)[nH]c2=S)cc1Cl`, the GI50 was 44.3 µM in the assay on ACHN renal; 0.6 µM with CCRF-CEM leukemia; more than 100 µM with HL-60(TB) leukemia; 68 µM with MCF7 breast; more than 100 µM with NCI-H522 lung; 28.3 µM in the assay on OVCAR-5 ovarian. Also, the GI50 with RPMI-8226 leukemia was 5.14 µM; in the assay with SK-MEL-5 melanoma it was 27.2 µM; in the assay with SNB-75 CNS, 18.6 µM. Also, the TGI with ACHN renal, in the assay with CCRF-CEM leukemia, with HL-60(TB) leukemia, with MCF7 breast, with NCI-H522 lung and with OVCAR-5 ovarian was more than 100 µM in each case. The TGI in the assay on RPMI-8226 leukemia was more than 100 µM; in the assay on SK-MEL-5 melanoma it was more than 100 µM; in the assay with SNB-75 CNS it was 48.7 µM.
